Measured values reported in patent US20190315823A1, “SMALL CATIONIC ANTI-BIOFILM AND IDR PEPTIDES” (priority 2013, published 2019).
Peptide text beside a SMILES is read from it.

Legend:
[1] = test system: human PBMC (MCP-1); assay: synergy with poly(I:C) to increase MCP-1 production; assay type: cell-based; conditions: 10 μg/ml peptide with 20 μg/ml poly(I:C)
Method: FIG. 21. Ability of 10 μg/ml of peptides in combination with 20 or 5 μg/ml of the known adjuvant poly inosine:cytosine [poly(I:C)] to synergize to increase MCP-1 production, a known adjuvant property [see Kindrachuk, J., H. Jenssen, M. Elliott, R. Townsend, A. Nijnik, S. F. Lee, V. Gerdts, L. A. Babiuk, S. A. Halperin and R. E. W. Hancock. 2009. A novel vaccine adjuvant comprised of a synthetic innate defence regulator peptide and CpG oligonucleotide links innate and adaptive immunity. Vaccine 27:4662-4671].
It is well accepted that vaccine immunization is best achieved by co-adminstration of an adjuvant. The precise mechanism by which these adjuvants work has eluded immunologists but appears to work in part by upregulating elements of innate immunity that smooth the transition to adaptive (antigen-specific) immunity (Bendelac A and R. Medzhitov. 2002. Adjuvants of immunity: Harnessing innate immunity to promote adaptive immunity J. Exp. Med. 195:F19-F23). Within this concept there are several possible avenues by which adjuvants might work including the attraction of immune cells into the site at which a particular antigen is injected, through e.g. upregulation of chemokines, the appropriate activation of cells when they reach that site, which can be caused by local cell or tissue damage releasing endogenous adjuvants or through specific cell activation by the adjuvants, and the compartmentalization of immune responses to the site of immunization (the so-called “depot” effect). […] 2010. Immunomodulators as adjuvants for vaccines and antimicrobial therapy. Ann. NY Acad. Sci. 1213:46-61].

[2] = test system: human peripheral blood mononuclear cells (MCP-1); assay: MCP-1 chemokine production by ELISA; assay type: cell-based; conditions: 24 hours of stimulation; lowest peptide concentration 20 μg/ml
Method: FIG. 19. High production of anti-infective chemokine MCP-1 by human peripheral blood mononuclear cells treated with peptides, as determined by ELISA after 24 hours of stimulation.
Venous blood (20 ml) from healthy volunteers was collected in Vacutainer® collection tubes containing sodium heparin as an anticoagulant (Becton Dickinson, Mississauga, ON) in accordance with UBC ethical approval and guidelines. Blood was diluted 1:1 with complete RPMI 1640 medium and separated by centrifugation over a Ficoll-Paque® Plus (Amersham Biosciences, Piscataway, N.J., USA) density gradient. White blood cells were isolated from the buffy coat, washed twice in RPMI 1640 complete medium, and the number of peripheral blood mononuclear cells (PBMC) was determined by Trypan blue exclusion. PBMC (5×10^5) were seeded into 12-well tissue culture dishes (Falcon; Becton Dickinson) at 0.75 to 1×10^6 cells/ml at 37° C. in 5% CO2. The above conditions were chosen to mimic conditions for circulating blood monocytes entering tissues at the site of infection via extravasation.
Following incubation of the cells under various treatment regimens, the tissue culture supernatants were centrifuged at 1000×g for 5 min, then at 10,000×g for 2 min to obtain cell-free samples. Supernatants were aliquoted and then stored at −20° C. prior to assay for various chemokines by capture ELISA (eBioscience and BioSource International Inc., CA, USA respectively)

[3] = test system: human PBMC (TNFα); assay: LPS-induced TNFα production by ELISA; assay type: cell-based; conditions: P. aeruginosa LPS, 24 hr
Method: FIG. 20. Ability of peptides to knockdown pro-inflammatory cytokine TNFα production by human PBMCs in response to bacterial LPS treatment as determined by ELISA after 24 hours.
LPS from P. aeruginosa strain H103 was highly purified free of proteins and lipids using the Darveau-Hancock method. Briefly, P. aeruginosa was grown overnight in LB broth at 37° C. Cells were collected and washed and the isolated LPS pellets were extracted with a 2:1 chloroform:methanol solution to remove contaminating lipids. Purified LPS samples were quantitated using an assay for the specific sugar 2-keto-3-deoxyoctosonic acid (KDO assay) and then resuspended in endotoxin-free water (Sigma-Aldrich).
Human PBMC were obtained as described above and treated with P. aeruginosa LPS (10 or 100 ng/ml) with or without peptides for 24 hr after which supernatants were collected and TNFα assessed by ELISA.

[4] = test system: methicillin resistant S. aureus (Sa) biofilm; assay type: cell-based, Staphylococcus aureus; conditions: peptide 5 μg/ml
[5] = test system: Pseudomonas aeruginosa (Pa) biofilm; assay: static abiotic solid surface (microtiter, crystal violet) / Bioflux biofilm inhibition screen; assay type: cell-based
Method: FIG. 1. Identification of new anti-biofilm peptides active against P. aeruginosa using the microtiter plate screening method with crystal violet staining. […] As a control peptide 1037 was utilized [de la Fuente Nunez et al. 2011].
(§1) Methods of assessment of anti-biofilm activity—Biofilm formation was initially analyzed using a static abiotic solid surface assay as described elsewhere (de la Fuente-Nunez et al., 2012). Dilutions (1/100) of overnight cultures were incubated in BM2 biofilm-adjusted medium [62 mM potassium phosphate buffer (pH 7), 7 mM (NH4)2SO4, 2 mM MgSO4, 10 μM FeSO4, 0.4% (wt/vol) glucose, 0.5% (wt/vol) Casamino Acids], or a nutrient medium such as Luria Broth, in polypropylene microtiter plates (Falcon, United States) in the absence (control) or presence of peptide. Peptide was added at time zero (prior to adding the diluted, overnight cultures) in varying concentrations, and the decrease in biofilm formation was recorded at 22-46 h for most bacteria. Planktonic cells were removed, biofilm cells adhering to the side of the tubes were stained with crystal violet, and absorbance at 595 nm was measured using a microtiter plate reader (Bio-Tek Instruments Inc., United States). Some peptides were screened against two Gram negative organisms, P. aeruginosa and K. pneumoniae using a Bioflux apparatus (AutoMate Scientific, Berkeley, Calif.; http://www.autom8.com/bioflux_biofilm.html), which allows for the high-throughput, real-time analysis of biofilms.

[6] = test system: P. aeruginosa biofilms; conditions: biofilms
Method: Peptides and various conventional antibiotics were analyzed by checkerboard titration into microtiter trays using CLSI methods (Wiegand, I., K. Hilpert, and R. E. W. Hancock. 2008. Nature Protocols 3:163-175), bacteria added and, after overnight incubation at 37° C., the residual biofilm assessed by the crystal violet method mentioned in the body of the grant, with an A595 of 0.2 considered as 100% biofilm inhibition. The effects of the peptide in reducing the minimal biofilm inhibitory concentration (MBIC) of the antibiotic and vice versa were assessed using the Fractional Inhibitory Concentration (FIC) method whereby ΣFTC=FICA+FICB=(CA/MICA)+(CB/MICB), where MBICA and MBICB are the MBICs of peptide A and antibiotic B alone, respectively, and CA and CB (expressed in μg/ml) are the MICs of the drugs in combination. This conventional clinical microbiology assay is interpreted as follows

[7] = test system: Klebsiella pneumoniae (Kp) biofilm; assay type: cell-based; conditions: peptide 10 μg/ml
Method: as §1

## CC[C@H](C)[C@H](NC(=O)[C@H](CC(C)C)NC(=O)[C@H](CCCNC(=N)N)NC(=O)[C@@H](N)C(C)C)C(=O)N[C@@H](Cc1c[nH]c2ccccc12)C(=O)N[C@@H](C)C(=O)N[C@H](C(=O)N[C@@H](CCCNC(=N)N)C(=O)N[C@H](C(=O)N[C@@H](Cc1c[nH]c2ccccc12)C(=O)N[C@@H](CCCNC(=N)N)C(=O)N[C@@H](CCCNC(=N)N)C(N)=O)[C@@H](C)CC)C(C)C [HE4] (H-VRLIWAVRIWRR-NH2; N-terminus assumed)
[1]
  synergy with poly(I:C) in MCP-1 production: showed synergy
[2]
  MCP-1 induction: clearly superior to peptide 1018
[3]
  suppression of LPS-induced TNFα: strongly suppressed

## CC[C@H](C)[C@H](N)C(=O)N[C@@H](CC(C)C)C(=O)N1CCC[C@H]1C(=O)N[C@@H](Cc1c[nH]c2ccccc12)C(=O)N[C@@H](CCCCN)C(=O)N[C@@H](Cc1c[nH]c2ccccc12)C(=O)N1CCC[C@H]1C(=O)N[C@@H](Cc1c[nH]c2ccccc12)C(=O)N[C@@H](Cc1c[nH]c2ccccc12)C(=O)N1CCC[C@H]1C(=O)N[C@@H](Cc1c[nH]c2ccccc12)C(=O)N[C@@H](CCCNC(=N)N)C(=O)N[C@@H](CCCNC(=N)N)C(N)=O [Indolicidin, reference compound]
[4]
  % Biofilm Inhibition Sa: 48%
[5]; Pa) biofilm, 10 μg/ml
  % Biofilm Inhibition Pa: 29%

## CC[C@H](C)[C@H](NC(=O)[C@H](CCCNC(=N)N)NC(=O)[C@@H](NC(=O)[C@@H](NC(=O)[C@H](CC(C)C)NC(=O)[C@H](CCCNC(=N)N)NC(=O)[C@@H](N)C(C)C)[C@@H](C)CC)C(C)C)C(=O)N[C@@H](Cc1c[nH]c2ccccc12)C(=O)N[C@@H](CCCNC(=N)N)C(=O)N[C@@H](CCCNC(=N)N)C(N)=O [HE10] (H-VRLIVRIWRR-NH2; N-terminus assumed)
[1]
  synergy with poly(I:C) in MCP-1 production: showed synergy
[2]
  MCP-1 induction: clearly superior to peptide 1018
[3]
  suppression of LPS-induced TNFα: strongly suppressed

## CC[C@H](C)[C@H](N)C(=O)N[C@@H](CC(C)C)C(=O)N[C@@H](CCCCN)C(=O)N[C@@H](CCCCN)C(=O)N[C@@H](Cc1c[nH]c2ccccc12)C(=O)N1CCC[C@H]1C(=O)N[C@@H](Cc1c[nH]c2ccccc12)C(=O)N[C@@H](Cc1c[nH]c2ccccc12)C(=O)N1CCC[C@H]1C(=O)N[C@@H](Cc1c[nH]c2ccccc12)C(=O)N[C@@H](CCCNC(=N)N)C(=O)N[C@@H](CCCNC(=N)N)C(=O)N[C@@H](CCCCN)C(N)=O [Peptide 11CN] (H-ILKKWPWWPWRRK-NH2; N-terminus assumed)
[4]
  % Biofilm Inhibition Sa: 32%

## CC[C@H](C)[C@H](NC(=O)[C@H](CCCNC(=N)N)NC(=O)[C@H](C)NC(=O)[C@@H](NC(=O)[C@H](CC(C)C)NC(=O)[C@H](CCCNC(=N)N)NC(=O)[C@H](CCCNC(=N)N)NC(=O)[C@@H](NC(=O)[C@@H](NC(=O)[C@H](CCCNC(=N)N)NC(=O)[C@@H](N)CCCCN)[C@@H](C)CC)C(C)C)C(C)C)C(=O)N[C@H](C(N)=O)C(C)C [Peptide 1017] (H-KRIVRRLVARIV-NH2; N-terminus assumed)
[4]
  % Biofilm Inhibition Sa: 21%
[5]; peptide 10 μg/ml
  % Biofilm Inhibition Pa: 26%

## CC[C@@H](C)[C@@H](NC(=O)[C@@H](C)NC(=O)[C@@H](CCCNC(=N)N)NC(=O)[C@@H](Cc1c[nH]c2ccccc12)NC(=O)[C@@H](CCC(N)=O)NC(=O)[C@H](N)C(C)C)C(=O)N[C@H](CCCNC(=N)N)C(=O)N[C@@H](C(=O)N[C@H](CCCNC(=N)N)C(=O)N[C@@H](C(=O)N[C@@H](C(=O)N[C@H](CCCNC(=N)N)C(N)=O)[C@H](C)CC)C(C)C)C(C)C [DJK5]
[6]
  MIC for complete inhibition of Pseudomonas aeruginosa: 1 µg/mL
  Minimal Biofilm Inhibitory Concentration (MBIC): 0.5 µg/mL
[7]
  % Biofilm Inhibition Kp: 99.8%
[5]; peptide 10 μg/ml
  % Biofilm Inhibition Pa: 99.7%

## CC[C@H](C)[C@H](NC(=O)[C@@H](NC(=O)[C@H](CCCNC(=N)N)NC(=O)[C@H](C)NC(=O)[C@@H](NC(=O)[C@H](CCCNC(=N)N)NC(=O)[C@H](CCCCN)NC(=O)[C@H](Cc1ccccc1)NC(=O)[C@@H](N)CCCNC(=N)N)C(C)C)C(C)C)C(=O)N[C@@H](Cc1c[nH]c2ccccc12)C(N)=O [HE12] (H-RFKRVARVIW-NH2; N-terminus assumed)
[1]
  synergy with poly(I:C) in MCP-1 production: showed synergy
[2]
  MCP-1 induction: clearly superior to peptide 1018
[3]
  suppression of LPS-induced TNFα: strongly suppressed

## CC[C@H](C)[C@H](N)C(=O)N[C@@H](CC(C)C)C(=O)N[C@@H](CCCNC(=N)N)C(=O)N[C@@H](Cc1c[nH]c2ccccc12)C(=O)N1CCC[C@H]1C(=O)N[C@@H](Cc1c[nH]c2ccccc12)C(=O)N1CCC[C@H]1C(=O)N[C@@H](Cc1c[nH]c2ccccc12)C(=O)N[C@@H](CCCNC(=N)N)C(=O)N[C@@H](CCCNC(=N)N)C(=O)N[C@@H](CCCCN)C(N)=O [MX226, reference compound] (H-ILRWPWPWRRK-NH2; N-terminus assumed)
[7]
  % Biofilm Inhibition Kp: 18%
[5]; peptide 10 μg/ml
  % Biofilm Inhibition Pa: 18%
